Tests used:
[1] = system: black-headed grosbeak Na^+/K^+-ATPase; assay: Na+/K+-ATPase inhibition assay, recombinant black-headed grosbeak enzyme expressed in Sf9 cells; format: biochemical, Pheucticus melanocephalus; settings: for times less inhibitory than for pig: black-headed grosbeak vs porcine enzyme, IC50 fold difference; for IC50: black-headed grosbeak enzyme, toxicity criteria of Agrawal et al.
Text: Pheucticus melanocephalus (black-headed grosbeak) ATPA1 and ATPB1 genes were synthesised (GeneArt; Invitrogen), codon optimised for Spodoptera frugiperda and cloned by GeneArt (Invitrogen) in pFastBac Dual plasmid with ATP1B1 under p10 promoter and ATP1A1 under PPH promoter. Final plasmids were verified by sequencing (accession number 196465).
(§1) Preparations of Na^+/K^+-ATPases were obtained by homogenization of dissected brains (T. castanotis, zebra finch, and H. membranacea, giant Asian mantid), from commercially obtained enzyme (Sus scrofa domesticus, domestic pig), and expression of ATP1A1 and ATP1B1 subunits of the Na^+/K^+-ATPase of the black-headed grosbeak in insect Sf9 cells (Invitrogen).
Recombinant Na^+/K^+-ATPases were expressed after infection of Sf9 cells with P0 virus stock following the optimized baculovirus expression system described by Scholz and Suppmann. The cells were pelleted by centrifugation, resuspended and sonicated to disrupt membranes and further centrifuged to remove cell debris. Cell membranes were pelleted by ultracentrifugation of the supernatant and finally resuspended in Milli-Q water (electronic supplementary material, method S2). Prior to the Na^+/K^+-ATPase inhibition assay, the black-headed grosbeak protein was verified by SDS–PAGE/Western blotting following the methods of Mohammadi et al. (see the electronic supplementary material, figure S1) and quantified by ELISA (see the electronic supplementary material, method S2d).
(§2) The inhibitory effects of increasing concentrations of four cardenolides (ouabain, glucopyranosyl frugoside, frugoside and gofruside) on the black-headed grosbeak, zebra finch and giant Asian mantids were determined by photometric measurement of inorganic phosphate released from enzymatic ATP hydrolysis while subtracting the background ATPase activity following Petschenka et al. (see the electronic supplementary material, method S2e). The assessment of the inhibitory impact of glucopyranosyl calotropin was limited to the black-headed grosbeak and zebra finch species. This stemmed from the restricted availability of the compound, which only permitted testing on two predator pumps. The inhibitory effects of the five compounds for the porcine ATPase were taken from Rubiano-Buitrago et al. for comparison. All assays were run in three biological replicates, and the average of two technical replicates of each biological replicate was used for subsequent statistical analyses. Raw data are available in the data repository.
For cardenolide inhibition, we converted the calibrated absorbance values to the percentage of non-inhibited Na^+/K^+-ATPase activity based on measurements from the control wells. We fitted inhibition curves by nonlinear fitting using a four-parameter logistic curve, with the top and bottom asymptotes set to 100 and 0, respectively, using the nlsLM function of the minipack.lm library in R [47]. From this we calculated the half maximal inhibitory concentration (IC50) values for each biological replicate. We compared the log10 IC50 values of individual cardenolides for each Na^+/K^+-ATPase enzyme using a linear model, testing the interaction between predator enzyme and cardenolide, and compared the inhibitory capacity of each compound pairwise using Tukey’s post hoc test. We calculated the fold differences between the IC50 values of individual cardenolides for black-headed grosbeak, zebra finch and giant Asian mantid versus the IC50 values on the porcine enzyme.

[2] = system: zebra finch Na^+/K^+-ATPase; assay: Na+/K+-ATPase inhibition assay, zebra finch brain lysate; format: biochemical, Taeniopygia castanotis; settings: for IC50: zebra finch enzyme, toxicity criteria of Agrawal et al.
Procedure: Taeniopygia castanotis (zebra finch) brain tissues were obtained from a breeding colony at the University of St Andrews, UK, under Home Office licence 70/8159. Individual brains were dissected and flash-frozen on dry ice before being shipped from St Andrews to the Max Planck Institute for Chemical Ecology, Jena, Germany, where they were kept at −80°C until used in the assays.
as §1
(§3) We sliced and weighed 5 mg from three different zebra finch brains and dissected the head capsule of five female giant Asian mantids to obtain the central body with intact optic lobes. Neural tissues were transferred to a 1 ml glass grinder (Wheaton Dounce tissue grinder, 1 ml, no. 357538) and homogenized in 500 μl distilled water. Zebra finch homogenates were transferred to a 50 ml Falcon tube on ice and resuspended with 15 ml resuspension buffer (0.25 M sucrose, 2 mM ethylenediaminetetraacetic acid and 25 mM HEPES/Tris; pH 7.0). Samples were sonicated at 85 W (Fisherbrand Model 120 Sonic Dismembrator, no. 12337338) for three 45 s intervals at 0°C, followed by centrifugation for 30 min at 10 000g (Sigma 3–18K, no. 10290) at 4°C to remove debris. The supernatant was collected and further centrifuged for 60 min at 100 000g at 4°C (Optima Max-XP tabletop ultracentrifuge, no. 393315) to isolate the membrane fraction. The pelleted membranes were washed twice and resuspended in 1 ml Milli-Q water (Milli-Q direct water purification system, Merck, no. C85358) and stored at −20°C. Giant Asian mantid homogenates were frozen to −80°C and then freeze-dried overnight and then resuspended in 1800 μl distilled water. Each sample was divided into aliquots of 600 μl and sonicated twice in an ice water bath (Bandelin Sonorex, no. Z659584) for 5 min. Samples were centrifuged at 3000 r.p.m. for 5 min and used to perform functional assays.
as §2
(§4) For cardenolide inhibition, we converted the calibrated absorbance values to the percentage of non-inhibited Na^+/K^+-ATPase activity based on measurements from the control wells. We fitted inhibition curves by nonlinear fitting using a four-parameter logistic curve, with the top and bottom asymptotes set to 100 and 0, respectively, using the nlsLM function of the minipack.lm library in R [47]. From this we calculated the half maximal inhibitory concentration (IC50) values for each biological replicate. […]

[3] = system: giant Asian mantid Na^+/K^+-ATPase; assay: Na+/K+-ATPase inhibition assay, giant Asian mantid neural tissue lysate; format: biochemical, Hierodula membranacea; settings: for IC50: giant Asian mantid enzyme, toxicity criteria of Agrawal et al.; for potency compared with the porcine enzyme (in words): giant Asian mantid vs pig, log10 IC50, Tukey post hoc
Procedure: Hierodula membranacea were obtained from M&M Wust—Mantids and More (Muhlheim am Main, Germany). Twenty-five individuals were obtained at the L4 stage and reared in individually double-ventilated boxes (19 × 19 × 19 cm). We provided them with greenbottle fly pupae as a food source, twice per week (two pupae during the nymph stages and three when they reached the adult stage). Mantids were sprayed with water every 2 days for hydration. The mantids were kept in an incubator (Snijders Scientific premium, Tilburg, The Netherlands, with an Imago 500 JUMO controller, Fulda, Germany) at 28°C and 70% humidity with an 18 L : 6 D cycle and a temperature of 18°C at night.
as §1, §3, §2
as §4, with “[47].” for “[47]. From this we calculated the half maximal inhibitory concentration (IC50) values for each biological replicate.”

[4] = system: O. fasciatus target site Na^+/K^+-ATPase; settings: cited from earlier work
[5] = zebra finch vs porcine enzyme, IC50 fold difference

Compound | times less inhibitory than for pig [1] [times] | times less inhibitory than for pig [2, 5] [times] | times less inhibitory than for pig ([3]; giant Asian mantid vs porcine enzyme, IC50 fold difference) [times] | inhibition of the enzyme (in words) ([1]; putatively resistant vertebrate predator) | IC50 [3] [nM] | potency compared with the porcine enzyme (in words) [3] | potency towards the bug's own target site (in words) [4] | inhibition of the enzyme (in words) ([2]; sensitive vertebrate enzymes) | IC50 [1] [nM] | IC50 [2] [nM] | potency compared with the porcine enzyme (in words) ([1]; black-headed grosbeak vs pig, log10 IC50, Tukey post hoc) | times more inhibitory than to pig [2, 5] [times] | times more inhibitory than to pig ([3]; giant Asian mantid vs porcine enzyme, IC50 fold difference, not significant at alpha 0.05) [times]
C[C@@H]1O[C@@H](O[C@H]2C[C@@H](O)[C@]3(CO)[C@H]4[C@H](O)C[C@]5(C)[C@@H](C6=CC(=O)OC6)CC[C@]5(O)[C@@H]4CC[C@]3(O)C2)[C@H](O)[C@H](O)[C@H]1O [ouabain, reference compound] | 18.9 | 6.8 | 4.3 |  |  |  |  |  |  |  |  |  | 
gofruside | 352.5 | 12.7 |  | weakest inhibitor | < 1000 | did not differ in inhibitory potential | among the weakest inhibitors |  |  |  |  |  | 
glucopyranosyl calotropin | 15.1 | 3.4 |  |  |  |  |  | effective inhibitor |  |  |  |  | 
C[C@H]1OC(O[C@H]2CC[C@@]3(CO)[C@H](CC[C@@H]4[C@@H]3CC[C@]3(C)[C@@H](C5=CC(=O)OC5)CC[C@]43O)C2)[C@H](O)[C@H](O)[C@@H]1O (stereo partly drawn) [frugoside] | 6.8 | 2.6 |  |  | < 1000 | not significantly different in potency | the most inhibitory |  | < 10000 | < 1000 |  |  | 
glucopyranosyl frugoside |  |  |  |  |  |  |  |  | < 10000 | < 1000 | not significantly different in potency | 28.3 | 2.3
